Values after ≈ are worked out from the molar mass of the structure shown. Blank lines part the entries; values can stand above or below the compound they belong to. Active and inactive are the calls of the source. No cut-off for these calls is given here.
What was measured:
hERG (KCNH2) [1] = molecular target: T1, hERG (KCNH2) (Homo sapiens, UniProt Q12809); experiment: Inhibition of human ERG overexpressed in HEK cells at 10 uM; type: cell-based, HEK293; conditions: HEK cells overexpressing human ERG
[2] = molecular target: T2, Serine/threonine-protein kinase Chk1 (Homo sapiens, UniProt O14757)
T2 sequence (O14757 whole entry): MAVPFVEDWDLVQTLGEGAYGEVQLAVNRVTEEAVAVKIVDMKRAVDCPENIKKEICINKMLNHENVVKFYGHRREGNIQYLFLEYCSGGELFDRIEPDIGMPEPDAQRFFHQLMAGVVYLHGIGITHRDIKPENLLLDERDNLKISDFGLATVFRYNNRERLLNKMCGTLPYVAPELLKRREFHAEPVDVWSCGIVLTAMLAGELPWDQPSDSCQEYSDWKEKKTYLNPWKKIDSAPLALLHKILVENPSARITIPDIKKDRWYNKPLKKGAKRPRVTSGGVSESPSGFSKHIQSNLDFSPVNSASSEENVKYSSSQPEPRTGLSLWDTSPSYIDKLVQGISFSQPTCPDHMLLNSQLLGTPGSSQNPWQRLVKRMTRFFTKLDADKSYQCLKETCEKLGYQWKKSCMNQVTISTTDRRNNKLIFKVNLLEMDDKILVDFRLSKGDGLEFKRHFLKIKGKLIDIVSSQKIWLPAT

hERG (KCNH2) [3] = molecular target: T1, hERG (KCNH2); experiment: Inhibition of human ERG overexpressed in HEK cells at 11 uM; type: cell-based, HEK293; conditions: HEK cells overexpressing human ERG
[4] = Plasma concentration in BALB/c mouse at 10 mg/kg, po at 6 hrs; type: ADME, organism-based; design: dose 10 mg/kg, route oral
[5] = Plasma concentration in BALB/c mouse at 10 mg/kg, po at 1 hr; type: ADME, organism-based; design: dose 10 mg/kg, route oral
[6] = Plasma concentration in BALB/c mouse at 10 mg/kg, iv at 6 hrs administered as bolus dose; type: ADME, organism-based; design: dose 10 mg/kg, route intravenous
in vitro = conditions: mouse, liver microsomes
[7] = Plasma concentration in BALB/c mouse at 10 mg/kg, iv at 1 hr administered as bolus dose; type: ADME, organism-based; design: dose 10 mg/kg, route intravenous
[8] = molecular target: Voltage-gated inwardly rectifying potassium channel KCNH2 (Homo sapiens, UniProt Q12809)
Mus musculus [9] = experiment: Toxicity in athymic mouse xenografted with human Calu6 cells assessed as body weight loss at 75 mg/kg, po tid for 7 days; type: organism-based, Calu-6; design: dose 75 mg/kg, route oral; conditions: in vivo, 168 h
Mus musculus [10] = experiment: Toxicity in athymic mouse xenografted with human SW620 cells assessed as body weight loss at 75 mg/kg, po tid for 4 days; type: organism-based, SW-620; design: dose 75 mg/kg, route oral; conditions: in vivo, 96 h
[11] = molecular target: Serine/threonine-protein kinase Chk2 (Homo sapiens, UniProt O96017)
Mus musculus [12] = experiment: Oral bioavailability in BALB/c mouse at 10 mg/kg; type: ADME, organism-based; conditions: in vivo
Cav1.2 = Cav1.2 (Homo sapiens, UniProt Q13936); experiment: Inhibition of human Cav1.2 at 10 uM
[13] = Thermodynamic solubility of the compound in water; type: physicochemical
KCNQ1/MINK (IKs) = KCNQ1/MINK (IKs) (Homo sapiens, UniProt P15382+P51787); experiment: Inhibition of human KCNQ1/MINK at 10 uM; type: protein-complex assay
Mus musculus [14] = experiment: Inhibition of CHK1 in human SW620 cells xenografted in athymic nude mouse at 300 mg/kg, po measured at 12 hrs by Western blot analysis in presence of gemcitabine; type: functional, organism-based; design: dose 300 mg/kg; conditions: SW-620
Mus musculus [15] = experiment: Clearance in BALB/c mouse at 10 mg/kg, iv and po; type: ADME, organism-based; design: dose 10 mg/kg, route oral; conditions: in vivo
[16] = molecular target: Potassium voltage-gated channel subfamily A member 5 (Homo sapiens) (UniProt P22460); experiment: Inhibition of human Kv1.5 at 10 uM
[17] = Toxicity in po dosed mouse; type: organism-based; conditions: in vivo
Caco-2 = conditions: human
Description: Permeability across apical to basolateral side in human Caco2 cells

[18] = molecular target: Cyclin-dependent kinase 1 (Homo sapiens, UniProt P06493)
Mus musculus [19] = experiment: Toxicity in athymic mouse xenografted with human HT-29 cells assessed as body weight loss at 75 mg/kg, po tid for 7 days; type: organism-based; design: dose 75 mg/kg, route oral; conditions: in vivo, 168 h
[20] = molecular target: Ribosomal protein S6 kinase alpha-3 (Homo sapiens) (UniProt P51812); experiment: Inhibition of human RSK2 at 1 uM by radiometric assay in presence of ATP
[21] = molecular target: Ribosomal protein S6 kinase alpha-1 (Homo sapiens) (UniProt Q15418); experiment: Inhibition of human RSK1 at 1 uM by radiometric assay in presence of ATP
[22] = molecular target: High affinity nerve growth factor receptor (Homo sapiens) (UniProt P04629); experiment: Inhibition of human TRKA at 1 uM by radiometric assay in presence of ATP
Plasma = experiment: Plasma protein binding in human; type: ADME, cell-free
[23] = molecular target: Serine/threonine-protein kinase BRSK1 (Homo sapiens) (UniProt Q8TDC3); experiment: Inhibition of human BRSK1 at 1 uM by radiometric assay in presence of ATP
Nav1.5 = Nav1.5 (Homo sapiens, UniProt Q14524); experiment: Inhibition of human Nav1.5 at 10 uM
Mus musculus [24] = experiment: Inhibition of CHK1 autophosphorylation in human SW620 cells xenografted in athymic nude mouse at 300 mg/kg, po measured at 6 hrs by Western blot analysis in presence of gemcitabine; type: functional, organism-based; design: dose 300 mg/kg; conditions: SW-620
Mus musculus [25] = experiment: Volume of distribution at steady state in BALB/c mouse at 10 mg/kg, iv and po; type: ADME, organism-based; design: dose 10 mg/kg, route oral; conditions: in vivo
[26] = Drug uptake in human SW620 cells xenografted in athymic nude mouse at 300 mg/kg, po measured at 6 to 12 hrs in presence of gemcitabine; type: ADME, organism-based, SW-620; design: dose 300 mg/kg, route oral; conditions: in vivo
[27] = molecular target: Potassium/sodium hyperpolarization-activated cyclic nucleotide-gated channel 4 (Homo sapiens) (UniProt Q9Y3Q4); experiment: Inhibition of human HCN4 at 10 uM
[28] = Aqueous solubility in phosphate buffer at pH 6.5; type: physicochemical
[29] = molecular target: Interleukin-1 receptor-associated kinase 1 (Homo sapiens) (UniProt P51617); experiment: Inhibition of human IRAK1 at 1 uM by radiometric assay in presence of ATP
Kir2.1 = Kir2.1 (Homo sapiens, UniProt P63252); experiment: Inhibition of human Kir2.1 at 10 uM
[30] = molecular target: AMP-activated protein kinase, AMPK (Homo sapiens) (UniProt P54646+O43741+P54619+Q9UGJ0+Q9Y478+Q13131+Q9UGI9); experiment: Inhibition of human AMPK at 1 uM by radiometric assay in presence of ATP; type: protein-complex assay
Kv4.3/KchIP2 = Kv4.3/KchIP2 (Homo sapiens, UniProt Q9NS61+Q9UK17); experiment: Inhibition of human Kv4.3/KchIP2 at 10 uM; type: protein-complex assay

T1 sequence (Q12809 whole entry): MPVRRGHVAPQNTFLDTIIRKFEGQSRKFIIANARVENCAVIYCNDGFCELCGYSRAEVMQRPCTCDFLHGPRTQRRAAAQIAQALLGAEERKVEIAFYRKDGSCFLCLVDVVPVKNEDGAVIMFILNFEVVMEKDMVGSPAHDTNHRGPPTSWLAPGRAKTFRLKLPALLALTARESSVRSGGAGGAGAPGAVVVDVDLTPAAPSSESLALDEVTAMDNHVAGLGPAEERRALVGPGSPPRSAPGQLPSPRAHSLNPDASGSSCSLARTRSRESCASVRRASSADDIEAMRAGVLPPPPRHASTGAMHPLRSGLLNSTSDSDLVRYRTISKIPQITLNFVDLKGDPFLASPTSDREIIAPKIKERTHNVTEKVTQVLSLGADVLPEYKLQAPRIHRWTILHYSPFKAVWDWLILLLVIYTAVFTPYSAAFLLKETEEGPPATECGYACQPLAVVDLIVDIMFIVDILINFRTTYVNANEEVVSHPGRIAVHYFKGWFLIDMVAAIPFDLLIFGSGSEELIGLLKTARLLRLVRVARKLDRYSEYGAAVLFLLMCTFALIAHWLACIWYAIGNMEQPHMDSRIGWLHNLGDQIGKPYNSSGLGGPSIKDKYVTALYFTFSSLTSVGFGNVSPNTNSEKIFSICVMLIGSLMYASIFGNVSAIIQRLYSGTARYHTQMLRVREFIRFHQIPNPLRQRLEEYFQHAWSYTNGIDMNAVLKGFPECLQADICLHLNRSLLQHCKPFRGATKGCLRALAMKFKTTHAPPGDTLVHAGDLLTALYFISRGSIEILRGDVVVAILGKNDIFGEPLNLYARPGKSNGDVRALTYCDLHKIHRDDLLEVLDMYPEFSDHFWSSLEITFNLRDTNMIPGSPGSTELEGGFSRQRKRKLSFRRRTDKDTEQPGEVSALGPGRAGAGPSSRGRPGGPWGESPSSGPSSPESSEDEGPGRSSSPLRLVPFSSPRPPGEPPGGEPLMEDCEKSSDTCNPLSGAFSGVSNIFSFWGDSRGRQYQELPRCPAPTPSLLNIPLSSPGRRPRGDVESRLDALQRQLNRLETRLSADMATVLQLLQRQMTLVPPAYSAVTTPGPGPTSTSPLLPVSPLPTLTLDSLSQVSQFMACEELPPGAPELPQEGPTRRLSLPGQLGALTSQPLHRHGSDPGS
Chain of Voltage-gated inwardly rectifying potassium channel KCNH2 (Q12809 whole entry): as above
Chain of Cav1.2 (Q13936 whole entry): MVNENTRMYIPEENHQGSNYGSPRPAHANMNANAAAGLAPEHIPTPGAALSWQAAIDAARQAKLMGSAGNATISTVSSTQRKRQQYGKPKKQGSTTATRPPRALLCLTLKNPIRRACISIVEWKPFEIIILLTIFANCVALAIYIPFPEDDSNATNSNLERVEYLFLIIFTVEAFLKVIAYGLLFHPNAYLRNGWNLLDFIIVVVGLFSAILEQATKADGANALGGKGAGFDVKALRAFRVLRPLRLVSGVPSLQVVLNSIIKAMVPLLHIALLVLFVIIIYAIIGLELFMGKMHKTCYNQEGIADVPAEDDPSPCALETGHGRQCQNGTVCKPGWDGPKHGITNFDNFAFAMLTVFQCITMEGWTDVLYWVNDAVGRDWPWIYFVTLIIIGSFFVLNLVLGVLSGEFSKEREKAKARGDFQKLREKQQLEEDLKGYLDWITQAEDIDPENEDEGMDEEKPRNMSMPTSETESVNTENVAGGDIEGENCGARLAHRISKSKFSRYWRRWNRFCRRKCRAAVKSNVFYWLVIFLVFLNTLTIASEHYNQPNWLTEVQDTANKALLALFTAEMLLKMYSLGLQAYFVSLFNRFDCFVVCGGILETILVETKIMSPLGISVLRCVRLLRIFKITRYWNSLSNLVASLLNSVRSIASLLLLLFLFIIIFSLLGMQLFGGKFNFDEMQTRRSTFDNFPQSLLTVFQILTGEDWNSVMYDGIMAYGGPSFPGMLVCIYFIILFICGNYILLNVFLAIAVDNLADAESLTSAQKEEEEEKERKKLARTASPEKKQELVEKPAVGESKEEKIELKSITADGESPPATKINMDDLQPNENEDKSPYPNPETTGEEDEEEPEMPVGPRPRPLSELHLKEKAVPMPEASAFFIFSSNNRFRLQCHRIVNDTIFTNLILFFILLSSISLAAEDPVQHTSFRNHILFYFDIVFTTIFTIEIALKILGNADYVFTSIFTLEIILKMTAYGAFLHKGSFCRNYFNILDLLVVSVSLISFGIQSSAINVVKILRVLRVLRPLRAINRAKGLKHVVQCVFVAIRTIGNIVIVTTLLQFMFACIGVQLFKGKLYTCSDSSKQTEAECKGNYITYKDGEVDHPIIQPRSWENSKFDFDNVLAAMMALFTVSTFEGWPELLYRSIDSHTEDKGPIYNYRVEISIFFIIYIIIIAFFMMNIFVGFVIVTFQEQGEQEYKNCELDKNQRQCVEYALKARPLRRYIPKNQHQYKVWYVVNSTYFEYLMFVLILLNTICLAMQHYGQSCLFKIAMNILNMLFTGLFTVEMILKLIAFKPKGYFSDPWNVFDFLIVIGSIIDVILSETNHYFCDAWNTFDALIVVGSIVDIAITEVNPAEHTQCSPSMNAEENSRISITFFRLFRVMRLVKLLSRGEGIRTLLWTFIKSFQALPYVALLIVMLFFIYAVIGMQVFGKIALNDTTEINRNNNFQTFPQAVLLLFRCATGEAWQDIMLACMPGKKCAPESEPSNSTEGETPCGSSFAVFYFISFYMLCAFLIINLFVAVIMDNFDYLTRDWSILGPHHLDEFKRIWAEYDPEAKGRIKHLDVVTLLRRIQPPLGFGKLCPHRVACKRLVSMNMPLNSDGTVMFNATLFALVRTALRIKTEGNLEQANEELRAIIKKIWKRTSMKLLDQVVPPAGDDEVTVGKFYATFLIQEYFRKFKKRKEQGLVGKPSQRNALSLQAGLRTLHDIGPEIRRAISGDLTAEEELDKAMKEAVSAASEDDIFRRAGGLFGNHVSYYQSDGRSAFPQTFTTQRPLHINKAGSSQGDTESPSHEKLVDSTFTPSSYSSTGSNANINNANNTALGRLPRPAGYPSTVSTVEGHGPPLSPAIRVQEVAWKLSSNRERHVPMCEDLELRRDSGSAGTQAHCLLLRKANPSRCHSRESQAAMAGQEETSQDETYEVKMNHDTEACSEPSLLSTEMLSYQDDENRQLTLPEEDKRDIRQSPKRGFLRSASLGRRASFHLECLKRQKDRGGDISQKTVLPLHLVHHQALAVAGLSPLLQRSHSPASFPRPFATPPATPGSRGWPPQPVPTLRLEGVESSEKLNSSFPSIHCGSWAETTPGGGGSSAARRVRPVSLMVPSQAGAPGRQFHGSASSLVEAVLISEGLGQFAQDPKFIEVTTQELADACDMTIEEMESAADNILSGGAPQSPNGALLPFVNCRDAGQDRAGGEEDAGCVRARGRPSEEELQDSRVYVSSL
Chain of Kir2.1 (P63252 whole entry): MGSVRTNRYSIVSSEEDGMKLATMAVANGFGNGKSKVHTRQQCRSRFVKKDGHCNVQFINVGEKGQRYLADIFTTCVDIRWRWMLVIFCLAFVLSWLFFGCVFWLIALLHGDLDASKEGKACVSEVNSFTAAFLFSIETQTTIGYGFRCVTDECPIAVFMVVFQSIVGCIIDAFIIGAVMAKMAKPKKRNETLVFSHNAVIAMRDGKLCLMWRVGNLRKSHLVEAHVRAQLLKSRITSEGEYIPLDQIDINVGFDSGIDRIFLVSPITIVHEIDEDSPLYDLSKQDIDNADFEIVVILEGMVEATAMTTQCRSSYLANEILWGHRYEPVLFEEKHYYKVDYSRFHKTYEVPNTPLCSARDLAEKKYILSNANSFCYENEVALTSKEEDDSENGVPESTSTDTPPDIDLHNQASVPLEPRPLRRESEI

IC50 [2]: < 0.001 µM
SMILES: COc1cc(Nc2cnc(C#N)c(O[C@@H]3CCNC3)n2)ncc1-c1cnn(C)c1

IC50 [2]: 0.007 µM
metabolised at 0.5 h (in vitro): 49%
SMILES: CNc1cc(Nc2cnc(C#N)c(O[C@H](C)CN(C)C)n2)ncc1C(=O)OC
IC50 [8]: 5 µM

concentration at 6 h [4]: 0.002 µM
concentration at 1 h [5]: 0.003 µM
concentration at 6 h [6]: 0.053 µM
metabolised at 0.5 h (in vitro): 12%
concentration at 1 h [7]: 0.254 µM
SMILES: CNc1cc(Nc2cnc(C#N)c(O[C@H]3CCNC3)n2)ncc1-c1cnn(C)c1
inhibition at 10 µM (hERG (KCNH2) [1]): 37%

IC50 [2]: 0.018 µM
SMILES: COC(=O)c1cnc(Nc2cnc(C#N)c(O[C@@H]3CCNC3)n2)cc1SC
inhibition at 10 µM (hERG (KCNH2) [1]): 25%

Second part, the compound before the results:

SMILES: CNc1cc(Nc2cnc(C#N)c(O[C@@H]3CCNC3)n2)ncc1-c1cnn(C)c1
inhibition at 10 µM (hERG (KCNH2) [1]): 22%

SMILES: CNc1cc(Nc2cnc(C#N)c(O[C@H](C)CN(C)C)n2)ncc1-c1cccc(F)c1
IC50 [2]: 0.036 µM
inhibition at 11 µM (hERG (KCNH2) [3]): 103%

SMILES: CNc1cc(Nc2cnc(C#N)c(O[C@H]3CCN(C)C3)n2)ncc1-c1cnn(C)c1
concentration at 6 h [4]: 0.004 µM
concentration at 1 h [5]: 0.018 µM
IC50 [2]: 0.0034 µM
concentration at 6 h [6]: 0.008 µM
metabolised at 0.5 h (in vitro): 19%
concentration at 1 h [7]: 0.147 µM

SMILES: C#Cc1cnc(Nc2cnc(C#N)c(O[C@H](C)CN(C)C)n2)cc1NC
concentration at 6 h [4]: 0.006 µM
concentration at 1 h [5]: 0.439 µM
IC50 [2]: 0.011 µM
concentration at 6 h [6]: 0.007 µM
metabolised at 0.5 h (in vitro): 40%
concentration at 1 h [7]: 0.833 µM

SMILES: C[C@H](CN(C)C)Oc1nc(Nc2cc3cccc(Cl)c3cn2)cnc1C#N
IC50 [8]: 5 µM

SMILES: COc1cc(Nc2cnc(C#N)c(O[C@H](C)CN(C)C)n2)ncc1-c1cnn(C)c1
Activity (Mus musculus [9]): Non-toxic
concentration at 6 h [4]: 0.052 µM
Activity (Mus musculus [10]): Non-toxic
IC50 [11]: > 10 µM
F (Mus musculus [12]): 61%
inhibition at 10 µM (Cav1.2): < 25%
Therm_solubility [13]: 0.07 mg/mL
inhibition at 10 µM (KCNQ1/MINK (IKs)): < 25%
inhibition (Mus musculus [14]): Active
clearance (Mus musculus [15]): 0.125 L/h
concentration at 1 h [5]: 1.12 µM
inhibition [16]: < 25%
MTD [17]: > 300 mg/kg
permeability (Caco-2): 290 nm/s
IC50 [18]: > 10 µM
Activity (Mus musculus [19]): Non-toxic
inhibition [20]: > 80%
IC50 [2]: 0.0077 µM
inhibition [21]: > 80%
inhibition [22]: > 80%
PPB (Plasma): 82%
IC50 [8]: 5 µM
inhibition [23]: > 80%
inhibition at 10 µM (Nav1.5): < 25%
inhibition (Mus musculus [24]): Active
Vdss (Mus musculus [25]): 0.113 L
Drug uptake [26]: Active
inhibition [27]: < 25%
concentration at 6 h [6]: 0.027 µM
solubility thermodynamic [28]: 6.2 mg/mL (≈ 15.2 mM)
metabolised at 0.5 h (in vitro): 38%
inhibition [29]: > 80%
concentration at 1 h [7]: 1.85 µM
inhibition at 10 µM (Kir2.1): < 25%
inhibition [30]: > 80%
inhibition at 10 µM (Kv4.3/KchIP2): < 25%

SMILES: CNc1cc(Nc2cnc(C#N)c(O[C@H](C)CN(C)C)n2)ncc1C(F)(F)F
concentration at 6 h [4]: 0.026 µM
concentration at 1 h [5]: 0.809 µM
permeability (Caco-2): < 46 nm/s
IC50 [2]: 0.021 µM
IC50 [8]: 1 µM
concentration at 6 h [6]: 0.033 µM
metabolised at 0.5 h (in vitro): 43%
concentration at 1 h [7]: 1.04 µM

From ChEMBL document CHEMBL2203133 (J Med Chem, 2012)
